One experiment addresses α2-GABAA receptor (Rattus norvegicus, UniProt P18508+P23576). The experiment can be described thus: Ligand-binding assay, radiolabeled flumazenil competition, rat spinal cord membranes. Conditions: for inhibition at 10 µM: read-out: % Inhibition (10^−5 M), affinity for α2-GABAA receptor; for inhibition at 0.1 µM: read-out: % Inhibition (10^−7 M), affinity for α2-GABAA receptor. The procedure: Determination of the affinity of test compounds for α1- and α2-GABAA receptor.
Male Sprague-Dawley rats weighing 200-250 g at the time of experiment were used. After decapitation of the animal, the cerebellum (tissue that mostly contains α1-GABAA receptor) and spinal cord (tissue that mostly contains α2-GABAA receptor) were removed. The membranes were prepared according to the method by J. Lameh et al. (Prog. Neuro-Psychopharmacol. Biol. Psychiatry, 24, 979-991, 2000). Once the tissues weighed, they were suspended in 50 mM Tris.HCl (pH 7.7), 1:40 (v/v), homogenized and then centrifuged at 20000 g for 10 min at 7° C. The resulting pellet was resuspended under the same conditions and centrifuged again. The pellet was finally resuspended on a minimum volume and kept at −80° C. overnight. On the next day, the process was repeated until the final pellet was resuspended at a ratio of 1:10 (v/v).
Affinity was determined by competitive tests using radiolabeled flumazenil as ligand. The tests were performed according to the methods described by S. Arbilla et al. (Eur. J. Pharmacol., 130, 257-263, 1986); and Y. Wu et al. (Eur. J. Pharmacol., 278, 125-132, 1995). The membranes containing the study receptors, flumazenil (radiolabeling at a final concentration of 1 nM) and ascending concentrations of test compounds (in a total volume of 500 μl in […] [ph 7.4] Tris.HCl buffer) were incubated. Simultaneously, the membranes were only incubated with the radiolabeled flumazenil (total binding, 100%) and in the presence of an elevated concentration of unradiolabeled flumazenil (non-specific binding, % estimation of radiolabeled ligand). The reactions started on adding the radiolabeled ligand followed by incubation for 60 minutes at 0° C. At the end of the incubation period, the tubes were filtered using a Brandel Mod. M-48R harvester and then washed three times with cold test buffer. The harvester was fitted with a GF/B filter that retained the membranes containing the receptors and the radiolabeled ligand which had been bound to the receptors. Then the filters were removed and left till dry. Once dried, the filters were cut, placed in vials with scintillation liquid and left under stirring overnight. The next day the filters were counted using a Packard Mod. Tricarb scintillation counter.
X: amount of bound ligand for every concentration of compound.
T: total binding, maximum amount bound to the radiolabeled ligand.
N: non-specific binding, amount of radiolabeled ligand bound in a non-specific way irrespective of the receptor used.
Every concentrations of compound were tested in duplicate and their mean values were used to determine the experimental values of % specific binding versus the concentration of compound. […] Inhibition constants (Ki) were calculated from the IC50 values according to Cheng-Prusoff's formula (Y. Cheng y W. H. Prusoff, Biochem. Pharmacol., 22(23), 3099-3108, 1973).

For another experiment, the system named is male CD1 mice. The experiment can be described thus: Predictive sedation-hypnosis test in mice (motor activity, crossings). The experiment is classed as in vivo. Conditions: single equimolecular intraperitoneal dose, crossings over 30 min after dosing (first 5 min discarded) versus control. As for the experimental part: • In vivo determination of predictive sedative-hypnotic action.
The in vivo effects of these compounds were assessed by a predictive sedation-hypnosis test in mice (D. J. Sanger et al., Eur. J. Pharmacol., 313, 35-42, 1996; and G. Griebel et al., Psychopharmacology, 146, 205-213, 1999). Groups of 5-8 male CD1 mice, weighing 22-26 g at the time of test, were used. The test compounds were administered in single equimolecular intraperitoneal doses, suspended in 0.25% agar with one drop of Tween in a volume of 10 ml/kg. Control animals received the vehicle alone. Using an Actisystem DAS16 (Panlab, S. L., Spain) the crossings (number of counts) were recorded for each mouse at 5-min intervals during a period of 30 minutes after dosing. The inhibition percentage of crossings of treated animals versus control animals (the first 5 min were discarded) was calculated.

Usually inhibition stands for the drop in the measured response relative to a control, in per cent.

On to `CCS(=O)(=O)N(C)c1cccc(-c2ccnc3c(C(=O)c4ccc(F)cc4)cnn23)c1` [Example 53, N-methyl-N-{3-[3-(fluorobenzene-4-carbonyl)-pyrazolo[1,5-a]pyrimidin-7-yl]-phenyl}-ethanesulfonamide], for which, at α2-GABAA receptor, the inhibition at 10 µM is 89.8% and the inhibition at 0.1 µM is 1%. Further, the “% Motor Activity Inhibition” value in the experiment on male CD1 mice is 94.89%.

On to `CC(C)S(=O)(=O)N(C)c1cccc(-c2ccnc3c(C#N)cnn23)c1` [Example 34, N-[3-(3-cyano-pyrazolo[1,5-a]pyrimidin-7-yl)-phenyl]-N-methyl-2-propanesulfonamide], for which, at α2-GABAA receptor, the inhibition at 10 µM was 87.6% and the inhibition at 0.1 µM was determined as 6.9%. For the same compound, the “% Motor Activity Inhibition” value with male CD1 mice is recorded as 92.58%.

Regarding `C#CCN(c1cccc(-c2ccnc3c(C(=O)c4cccs4)cnn23)c1)S(=O)(=O)C(C)C` [Example 19, N-2-propynyl-N-{3-[3-(thiophene-2-carbonyl)-pyrazolo[1,5-a]pyrimidin-7-yl]-phenyl}-2-propanesulfonamide], at α2-GABAA receptor, the inhibition at 10 µM amounted to 94.4% and the inhibition at 0.1 µM was 45.2%. For the same compound, the “% Motor Activity Inhibition” value in the experiment with male CD1 mice was 89.88%.

For `C=CS(=O)(=O)N(C)c1cccc(-c2ccnc3c(C(=O)c4cccs4)cnn23)c1` [Example 94, N-methyl-N-{3-[3-(thiophene-2-carbonyl)-pyrazolo[1,5-a]pyrimidin-7-yl]-phenyl}-vinylsulfonamide], at α2-GABAA receptor, the inhibition at 10 µM was 99.5% and the inhibition at 0.1 µM stood at 41.2%. In the experiment with male CD1 mice, the “% Motor Activity Inhibition” value is given as 88.69%.

In the case of `CN(c1cccc(-c2ccnc3c(C(=O)c4cccs4)cnn23)c1)S(=O)(=O)CC(F)(F)F` [Example 76, N-methyl-N-{3-[3-(thiophene-2-carbonyl)-pyrazolo[1,5-a]pyrimidin-7-yl]-phenyl}-2,2,2-trifluoroethane-sulfonamide], on α2-GABAA receptor, the inhibition at 10 µM is 41.7% and the inhibition at 0.1 µM was 0%. In addition, in the experiment with male CD1 mice, the “% Motor Activity Inhibition” value is reported as 78.36%.

In the case of `CCN(c1cccc(-c2ccnc3c(C(=O)c4ccc(C)cc4)cnn23)c1)S(C)(=O)=O` [Example 64, N-ethyl-N-{3-[3-(4-methylbenzoyl)-pyrazolo[1,5-a]pyrimidin-7-yl]-phenyl}-methanesulfonamide], on α2-GABAA receptor, the inhibition at 10 µM turned out to be 61.5% and the inhibition at 0.1 µM was found to be 20.9%. The “% Motor Activity Inhibition” value in the experiment with male CD1 mice is 90.32%.

For `CN(c1cccc(-c2ccnc3c(C(=O)c4ccccn4)cnn23)c1)S(C)(=O)=O` [Example 39, N-methyl-N-{3-[3-(pyridin-2-carbonyl)-pyrazolo[1,5-a]pyrimidin-7-yl]-phenyl}-methanesulfonamide], at α2-GABAA receptor, the inhibition at 10 µM was found to be 96.6% and the inhibition at 0.1 µM stood at 23.3%. Also, the “% Motor Activity Inhibition” value in the experiment on male CD1 mice was 95.28%.

As for `CN(c1cccc(-c2ccnc3c(C(=O)c4cccs4)cnn23)c1)S(=O)(=O)C1CC1` [Example 92, N-methyl-N-{3-[3-(thiophene-2-carbonyl)-pyrazolo[1,5-a]pyrimidin-7-yl]-phenyl}-cyclopropyl-sulfonamide], at α2-GABAA receptor, the inhibition at 10 µM is 95.7% and the inhibition at 0.1 µM amounted to 36.5%. The “% Motor Activity Inhibition” value with male CD1 mice is given as 74.36%.

Consider `Cc1nc(C)c(S(=O)(=O)N(C)c2cccc(-c3ccnc4c(C(=O)c5cccs5)cnn34)c2)s1` [Example 91], for which, at α2-GABAA receptor, the inhibition at 10 µM stood at 84.1% and the inhibition at 0.1 µM was determined as 4.8%. In addition, the “% Motor Activity Inhibition” value with male CD1 mice is on record as 72.85%.

With `C#CCN(c1cccc(-c2ccnc3c(C#N)cnn23)c1)S(=O)(=O)C(C)C` [Example 30, N-[3-(3-cyano-pyrazolo[1,5-a]pyrimidin-7-yl)-phenyl]-N-2-propynyl-propane-2-sulfonamide], at α2-GABAA receptor, the inhibition at 10 µM was 73.3% and the inhibition at 0.1 µM worked out at 0%. In addition, in the experiment with male CD1 mice, the “% Motor Activity Inhibition” value is 94.86%.

Take `CCN(c1cccc(-c2ccnc3c(C(=O)c4ccncc4)cnn23)c1)S(C)(=O)=O` [Example 46, N-ethyl-N-{3-[3-(pyridin-4-carbonyl)-pyrazolo[1,5-a]pyrimidin-7-yl]-phenyl}-methanesulfonamide]: on α2-GABAA receptor, the inhibition at 10 µM amounted to 97.6% and the inhibition at 0.1 µM worked out at 11.9%. The “% Motor Activity Inhibition” value in the experiment on male CD1 mice was 93.98%.

Regarding `CCN(c1cccc(-c2ccnc3c(C#N)cnn23)c1)S(=O)(=O)C(C)C` [Example 35, N-[3-(3-cyano-pyrazolo[1,5-a]pyrimidin-7-yl)-phenyl]-N-ethyl-2-propanesulfonamide], on α2-GABAA receptor, the inhibition at 10 µM was found to be 86.5% and the inhibition at 0.1 µM amounted to 24.5%. Further, the “% Motor Activity Inhibition” value with male CD1 mice is given as 92.55%.

As for `CN(c1cccc(-c2ccnc3c(C(=O)c4ccccc4)cnn23)c1)S(C)(=O)=O` [Example 69, N-methyl-N-{3-[3-(benzoyl)-pyrazolo[1,5-a]pyrimidin-7-yl]-phenyl}-methanesulfonamide], on α2-GABAA receptor, the inhibition at 10 µM worked out at 99% and the inhibition at 0.1 µM came to 36.7%. For the same compound, in the experiment with male CD1 mice, the “% Motor Activity Inhibition” value is given as 96.90%.

As for `CCCN(c1cccc(-c2ccnc3c(C#N)cnn23)c1)S(=O)(=O)C(C)C` [Example 37, N-[3-(3-cyano-pyrazolo[1,5-a]pyrimidin-7-yl)-phenyl]-N-propyl-2-propanesulfonamide], on α2-GABAA receptor, the inhibition at 10 µM was 40.2% and the inhibition at 0.1 µM came to 0%. Besides, the “% Motor Activity Inhibition” value with male CD1 mice was 92.13%.

In the case of `CN(c1cccc(-c2ccnc3c(C(=O)c4cccs4)cnn23)c1)S(=O)(=O)c1ccc(C#N)cc1` [Example 84, N-methyl-N-{3-[3-(thiophene-2-carbonyl)-pyrazolo[1,5-a]pyrimidin-7-yl]-phenyl}-4-cyanobenzene-sulfonamide], on α2-GABAA receptor, the inhibition at 10 µM was found to be 89.5% and the inhibition at 0.1 µM came to 0%. Besides, in the experiment with male CD1 mice, the “% Motor Activity Inhibition” value is 68.98%.

Turning to `CN(c1cccc(-c2ccnc3c(C(=O)c4ccc(F)cc4)cnn23)c1)S(C)(=O)=O` [Example 51, N-methyl-N-{3-[3-(fluorobenzene-4-carbonyl)-pyrazolo[1,5-a]pyrimidin-7-yl]-phenyl}-methanesulfonamide], on α2-GABAA receptor, the inhibition at 10 µM is 94.7% and the inhibition at 0.1 µM was 16.8%. Also, the “% Motor Activity Inhibition” value in the experiment with male CD1 mice is recorded as 90.04%.

On to `CCN(c1cccc(-c2ccnc3c(C(=O)c4cccs4)cnn23)c1)S(=O)(=O)C(C)C` [Example 24, N-ethyl-N-{3-[3-(thiophene-2-carbonyl)-pyrazolo[1,5-a]pyrimidin-7-yl]-phenyl}-2-propane-sulfonamide], for which, at α2-GABAA receptor, the inhibition at 10 µM amounted to 83% and the inhibition at 0.1 µM worked out at 10.4%. In addition, the “% Motor Activity Inhibition” value in the experiment on male CD1 mice is 94.01%.

With `C#CCN(c1cccc(-c2ccnc3c(C(=O)c4ccc(C)cc4)cnn23)c1)S(C)(=O)=O` [Example 68, N-2-propynyl-N-{3-[3-(4-methylbenzoyl)-pyrazolo[1,5-a]pyrimidin-7-yl]-phenyl}-methanesulfonamide], on α2-GABAA receptor, the inhibition at 10 µM turned out to be 92.7% and the inhibition at 0.1 µM stood at 31.6%. Further, the “% Motor Activity Inhibition” value with male CD1 mice is listed as 87.78%.

With `CN(c1cccc(-c2ccnc3c(C(=O)c4cccs4)cnn23)c1)S(=O)(=O)c1ccccc1Cl` [Example 77, N-methyl-N-{3-[3-(thiophene-2-carbonyl)-pyrazolo[1,5-a]pyrimidin-7-yl]-phenyl}-2-chlorobenzene-sulfonamide], at α2-GABAA receptor, the inhibition at 10 µM worked out at 88.5% and the inhibition at 0.1 µM was 13.8%. In the experiment on male CD1 mice, the “% Motor Activity Inhibition” value is listed as 70.12%.
